The source of these data is patent publication US8551984B2, “Aminopyrimidines as SYK inhibitors” (Merck Sharp & Dohme Corp., priority 2009, dated 2013).

For the assay, the target named is recombinant human SYK (GST-hSYK fusion protein) (Homo sapiens, UniProt P43405). In words: biochemical.
[1] abbreviates: rhSYK Activity (IC50), recombinant human GST-SYK 5 pM, ATP 25 μM, biotinylated substrate peptide 250 nM, HTRF, 10-dose titration.
The mark [2] stands for this setting: Syk IC50, HTRF, recombinant human GST-SYK.
Setting [3] is: rhSYK Activity, Table 10, Formula A.
The mark [4] stands for this setting: rhSYK Activity, table of Examples 16-x.
Setting [5] is: rhSYK Activity, table of Examples 19-x.

Description: Homogeneous Time-Resolved Fluorescence (HTRF) Assay for the Recombinant Human SYK Enzyme:

In general, IC50 refers to the concentration at which inhibition is half-maximal. With `Cc1cc(Nc2nccc([C@H](C)F)n2)cc(-c2cnc([C@@]3(O)CC[C@H](C(=O)O)C(C)(C)C3)s2)c1` [116A-40], the IC50 (rhSYK Activity, Table 116A) was less than 100 nM.

`Cc1cc(Nc2nccc(C(F)(F)F)n2)cc(-c2cnc(C3(O)CC(C)(C)C(C(=O)O)CC3O)s2)c1` (stereo not drawn) [142(1), 1,4-Trans, 1,5-trans-4,5-dihydroxy-2,2-dimethyl-4-[5-(3-methyl-5-{[4-(trifluoromethyl)pyrimidin-2-yl]amino}phenyl)-1,3-thiazol-2-yl]cyclohexanecarboxylic acid]: under setting [1], the IC50 was less than 100 nM.

With `CO/C=C/c1ncc(-c2cc(C)cc(Nc3nccc(C(F)(F)F)n3)c2)s1` [153(A), N-(3-{2-[(E)-2-Methoxyethenyl]-1,3-thiazol-5-yl}-5-methylphenyl)-4-(trifluoromethyl)pyrimidin-2-amine], under setting [1], the IC50 is less than 100 nM.

On to `CO/C=C\c1ncc(-c2cc(C)cc(Nc3nccc(C(F)(F)F)n3)c2)s1` [153(B), N-(3-{2-[(Z)-2-Methoxyethenyl]-1,3-thiazol-5-yl}-5-methylphenyl)-4-(trifluoromethyl)pyrimidin-2-amine], for which, under setting [1], the IC50 was less than 100 nM.

Consider `CCOP(=O)(OCC)[C@]1(O)CC[C@](O)(c2ncc(-c3cc(C)cc(Nc4nccc(C(F)(F)F)n4)c3)s2)CC1` [155(B), Diethyl{trans-1,4-dihydroxy-4-[5-(3-methyl-5-{[4-(trifluoromethyl)pyrimidin-2-yl]amino}phenyl)-1,3-thiazol-2-yl]cyclohexyl}phosphonate], for which the IC50 under setting [1] was less than 100 nM.

In the case of `Cc1cc(Nc2nccc([C@@H](C)F)n2)cc(-c2cnc([C@@]3(O)CC[C@H](C(=O)O)C(C)(C)C3)s2)c1` [(1S,4R)-4-{5-[3-({4-[(1R)-1-fluoroethyl]pyrimidin-2-yl}amino)-5-methylphenyl]-1,3-thiazol-2-yl}-4-hydroxy-2,2-dimethylcyclohexanecarboxylic acid], the IC50 under setting [2] is less than 0.5 nM.

Take `Cc1cc(Nc2nccc([C@H](C)F)n2)cc(-c2cnc([C@@]3(O)CC[C@H](C(=O)O)C(C)(C)C3)s2)c1` [(1S,4R)-4-{5-[3-({4-[(1S)-1-fluoroethyl]pyrimidin-2-yl}amino)-5-methylphenyl]-1,3-thiazol-2-yl}-4-hydroxy-2,2-dimethylcyclohexanecarboxylic acid]: under setting [2], the IC50 is less than 0.5 nM.

Consider `COc1ccnc(Nc2cc(C)cc(-c3cnc(C4(O)CCNC(=O)CC4)s3)c2)n1` (stereo not shown) [Example 10A-1], for which, under setting [3], the IC50 was less than 100 nM.

For the compound `COCc1cc(Nc2nccc(C(F)(F)F)n2)cc(-c2cnc(C3(O)CCNC(=O)CC3)s2)c1` (stereo not shown) [Example 10A-4], under setting [3], the IC50 is less than 100 nM.

On to `Cc1cc(Nc2nccc(C(F)(F)F)n2)cc(-c2cnc(C3=CC(=O)NCC3)s2)c1` [Example 10B-1], for which the IC50 (rhSYK Activity, Table 10, Formula B) was less than 100 nM.

Consider `OC1(c2ncc(-c3cccc(Nc4nccc(C(F)(F)F)n4)c3)s2)CCCC1` [Example 15-2], for which the IC50 (rhSYK Activity, Table 15) is less than 100 nM.

Turning to `Cc1cc(Nc2nccc(C(F)(F)F)n2)cc(-c2cnc(C(C)(O)C(F)(F)F)s2)c1` (stereo not shown) [Example 15-4], the IC50 (rhSYK Activity, Table 15) was less than 100 nM.

For the compound `CC(O)c1ncc(-c2cccc(Nc3nccc(C(F)(F)F)n3)c2)s1` (stereo not shown) [Example 15-5, 1-[5-(3-{[4-(Trifluoromethyl)pyrimidin-2-yl]amino}phenyl)-1,3-thiazol-2-yl]ethanol], for the setting “rhSYK Activity, Table 15”, the IC50 was less than 100 nM.

In the case of `CCCC(=O)Nc1cc(Nc2nccc(C(F)(F)F)n2)cc(-c2cnc(C3(O)CCC3)s2)c1` [Example 16-1], the IC50 under setting [4] was less than 100 nM.

Take `O=C(Nc1cc(Nc2nccc(C(F)(F)F)n2)cc(-c2cnc(C3(O)CCC3)s2)c1)C1CC1` [Example 16-2]: under setting [4], the IC50 is less than 100 nM.

Take `CCNC(=O)Nc1cc(Nc2nccc(C(F)(F)F)n2)cc(-c2cnc(C3(O)CCC3)s2)c1` [Example 19-1]: under setting [5], the IC50 is less than 100 nM.

As to `NC(=O)Nc1cc(Nc2nccc(C(F)(F)F)n2)cc(-c2cnc(C3(O)CCC3)s2)c1` [Example 19-2], the IC50 under setting [5] was less than 100 nM.

On to `CNC(=O)Nc1cc(Nc2nccc(C(F)(F)F)n2)cc(-c2cnc(C3(O)CCC3)s2)c1` [Example 19-3], for which the IC50 under setting [5] is less than 100 nM.

For the compound `CC(C)NC(=O)Nc1cc(Nc2nccc(C(F)(F)F)n2)cc(-c2cnc(C3(O)CCC3)s2)c1` [Example 19-4], the IC50 under setting [5] was less than 100 nM.

Take `NC(=O)NC(=O)Nc1cc(Nc2nccc(C(F)(F)F)n2)cc(-c2cnc(C3(O)CCC3)s2)c1` [Example 19-5]: under setting [5], the IC50 was less than 100 nM.

`FC(F)(F)c1ccnc(Nc2cccc(-c3cnc(C4CCCO4)s3)c2)n1` (stereo not shown) [Example 21-1]: the IC50 (rhSYK Activity, Table 21) was less than 100 nM.

On to `CN1CCOC(c2ncc(-c3cccc(Nc4nccc(C(F)(F)F)n4)c3)s2)C1` (stereo not shown) [Example 21-2], for which the IC50 (rhSYK Activity, Table 21) is less than 100 nM.

Regarding `CS(=O)(=O)Cc1ncc(-c2cccc(Nc3nccc(C(F)(F)F)n3)c2)s1` [Example 21-3], where the note is “rhSYK Activity, Table 21”, the IC50 is less than 100 nM.

Turning to `Cn1cc(-c2ncc(-c3cccc(Nc4nccc(C(F)(F)F)n4)c3)s2)cn1` [Example 21-4], under “rhSYK Activity, Table 21”, the IC50 was less than 100 nM.

As for `FC(F)(F)c1ccnc(Nc2cccc(-c3cnc(C4CCOC4)s3)c2)n1` (stereo not shown) [Example 21-5], the IC50 (rhSYK Activity, Table 21) was less than 100 nM.

As to `FC(F)(F)c1ccnc(Nc2cccc(-c3cnc(CN4CCOCC4)s3)c2)n1` [Example 21-6], the IC50 (rhSYK Activity, Table 21) was less than 100 nM.

As for `FC(F)(F)c1ccnc(Nc2cccc(-c3cnc(C4CCc5ccccc54)s3)c2)n1` (stereo not shown) [Example 21-7], the IC50 (rhSYK Activity, Table 21) is 1000 to 10000 nM.

On to `CCN(CC)CCC(C)(O)c1ncc(-c2cccc(Nc3nccc(C(F)(F)F)n3)c2)s1` (stereo not shown) [Example 21-8], for which the IC50 (rhSYK Activity, Table 21) was in the range of 100 to 1000 nM.

For `FC1(F)CC(c2ncc(-c3cccc(Nc4nccc(C(F)(F)F)n4)c3)s2)C1` [Example 21-9], the IC50 (rhSYK Activity, Table 21) was in the range of 100 to 1000 nM.

With `O=C1OCCN1Cc1ncc(-c2cccc(Nc3nccc(C(F)(F)F)n3)c2)s1` [Example 21-10], the IC50 (rhSYK Activity, Table 21) is less than 100 nM.

As to `COC(=O)[C@H]1CC[C@H](c2ncc(-c3cccc(Nc4nccc(C(F)(F)F)n4)c3)s2)CC1` [Example 21-11, methyl trans-4-[5-(3-{[4-(trifluoromethyl)pyrimidin-2-yl]amino}phenyl)-1,3-thiazol-2-yl]cyclohexanecarboxylate], under “rhSYK Activity, Table 21”, the IC50 was in the range of 100 to 1000 nM.

Take `O=C(NCCO)[C@H]1CC[C@H](c2ncc(-c3cccc(Nc4nccc(C(F)(F)F)n4)c3)s2)CC1` [Example 21-12]: the IC50 (rhSYK Activity, Table 21) was less than 100 nM.

As for `O=C1CC(c2ncc(-c3cccc(Nc4nccc(C(F)(F)F)n4)c3)s2)CN1` (stereo not shown) [Example 21-14], the IC50 (rhSYK Activity, Table 21) is less than 100 nM.

Turning to `FC(F)(F)c1ccnc(Nc2cccc(-c3cnc(C4COCCO4)s3)c2)n1` (stereo not shown) [Example 21-15], where the note is “rhSYK Activity, Table 21”, the IC50 was less than 100 nM.

Regarding `CN1CC(c2ncc(-c3cccc(Nc4nccc(C(F)(F)F)n4)c3)s2)CCC1=O` (stereo not shown) [Example 21-17], where the note is “rhSYK Activity, Table 21”, the half-maximal inhibitory concentration (IC50) was less than 100 nM.

Turning to `CN1CCCCCC1c1ncc(-c2cccc(Nc3nccc(C(F)(F)F)n3)c2)s1` (stereo not shown) [Example 21-18], the IC50 (rhSYK Activity, Table 21) fell in the range of 100 to 1000 nM.

As for `OC(c1ncc(-c2cc(NCC(F)(F)F)cc(Nc3nccc(C(F)(F)F)n3)c2)s1)C(F)F` (stereo not shown) [Example 27-1], the IC50 (rhSYK Activity, Table 27) is less than 100 nM.

On to `CC(O)(c1ncc(-c2cc(NCC(F)(F)F)cc(Nc3nccc(C(F)(F)F)n3)c2)s1)C(F)(F)F` (stereo not shown) [Example 27-2], for which the IC50 (rhSYK Activity, Table 27) was less than 100 nM.

For `Cc1cc(Nc2ncc(F)cn2)cc(-c2cnc(C3(O)CCC(C)(C(=O)O)CC3)s2)c1` (stereo not shown) [Example 33A-3], the 50% inhibitory concentration (IC50) (rhSYK Activity, Table 33-A) was less than 100 nM.

Regarding `Cc1cc(Nc2ncc(F)cn2)cc(-c2cnc([C@]3(O)CC[C@](C)(C(=O)O)CC3)s2)c1` [Example 33A-4], the IC50 (rhSYK Activity, Table 33-A) was less than 100 nM.

For `Cc1cc(Nc2nccc(C(F)(F)F)n2)cc(-c2cnc([C@]3(O)CC[C@H](C(=O)O)CC3)s2)c1` [Example 33A-8], the IC50 (rhSYK Activity, Table 33-A) was less than 100 nM.

For `Cc1cc(Nc2nccc(C(F)(F)F)n2)cc(-c2cnc(C3(O)CCC(C(=O)O)(c4ccccc4)CC3)s2)c1` (stereo not shown) [Example 33A-9], for the setting “rhSYK Activity, Table 33-A”, the IC50 was less than 100 nM.

For the compound `CCOC(=O)C1(C)CCC(O)(c2ncc(-c3cc(C)cc(Nc4nccc(C(F)(F)F)n4)c3)s2)CC1` (stereo not shown) [Example 33A-11], the IC50 (rhSYK Activity, Table 33-A) was in the range of 100 to 1000 nM.

Turning to `Cc1cc(Nc2nccc(C(F)(F)F)n2)cc(-c2cnc([C@]3(O)CC[C@](C)(C(=O)O)CC3)s2)c1` [Example 33A-12], the IC50 (rhSYK Activity, Table 33-A) was less than 100 nM.

For the compound `Cc1cc(Nc2nccc(C(F)(F)F)n2)cc(-c2cnc(C3(O)CCC(C)(C(=O)O)CC3)s2)c1` (stereo not shown) [Example 33A-13], the IC50 (rhSYK Activity, Table 33-A) was less than 100 nM.

As to `COC(=O)C1(NC(C)=O)CCC(O)(c2ncc(-c3cc(C)cc(Nc4nccc(C(F)(F)F)n4)c3)s2)CC1` (stereo not shown) [Example 33A-14], the IC50 (rhSYK Activity, Table 33-A) was less than 100 nM.

In the case of `CC(=O)NC1(C(=O)O)CCC(O)(c2ncc(-c3cc(C)cc(Nc4nccc(C(F)(F)F)n4)c3)s2)CC1` (stereo not shown) [Example 33A-15], under “rhSYK Activity, Table 33-A”, the IC50 is less than 100 nM.

`Cc1cc(Nc2nccc(C(F)(F)F)n2)cc(-c2cnc([C@]3(O)CC[C@H](CC(=O)O)CC3)s2)c1` [Example 33A-16]: the IC50 (rhSYK Activity, Table 33-A) was less than 100 nM.

Consider `Cc1cc(Nc2nccc(C(F)(F)F)n2)cc(-c2cnc(C3(O)CCC(CCC(=O)O)CC3)s2)c1` (stereo not shown) [Example 33A-18], for which the IC50 (rhSYK Activity, Table 33-A) is less than 100 nM.

In the case of `CCOC(=O)CCC1CCC(O)(c2ncc(-c3cc(C)cc(Nc4nccc(C(F)(F)F)n4)c3)s2)CC1` (stereo not shown) [Example 33A-21], the IC50 (rhSYK Activity, Table 33-A) is less than 100 nM.

For the compound `O=C(O)[C@H]1CC[C@@](O)(c2ncc(-c3cc(Cl)cc(Nc4nccc(C(F)(F)F)n4)c3)s2)CC1` [Example 33A-22], the IC50 (rhSYK Activity, Table 33-A) was less than 100 nM.

In the case of `O=C(O)[C@H]1CC[C@@](O)(c2ncc(-c3cccc(Nc4nccc(C(F)(F)F)n4)c3)s2)CC1` [Example 33A-23], the IC50 (rhSYK Activity, Table 33-A) was less than 100 nM.

For `O=C(O)[C@H]1CC[C@](O)(c2ncc(-c3cccc(Nc4nccc(C(F)(F)F)n4)c3)s2)CC1` [Example 33A-24], under “rhSYK Activity, Table 33-A”, the IC50 is less than 100 nM.

As for `CCOC(=O)[C@H]1CC[C@](O)(c2ncc(-c3cccc(Nc4nccc(C(F)(F)F)n4)c3)s2)CC1` [Example 33A-25], where the note is “rhSYK Activity, Table 33-A”, the IC50 was less than 100 nM.

As to `CCOC(=O)[C@H]1CC[C@@](O)(c2ncc(-c3cccc(Nc4nccc(C(F)(F)F)n4)c3)s2)CC1` [Example 33A-26], the IC50 (rhSYK Activity, Table 33-A) was in the range of 100 to 1000 nM.
